Results on two molecules are retold here after ChEMBL document CHEMBL5120862, “Novel non-covalent LSD1 inhibitors endowed with anticancer effects in leukemia and solid tumor cellular models” (Eur J Med Chem, 2022).

For data set [1], the target named is T1, LSD1/CoREST complex (Homo sapiens, UniProt O60341). Briefly: Binding affinity to human LSD1/CoREST assessed as dissociation constant by competitive fluorescence polarization assay. The class given is protein-complex assay.
Data set [2] can be described thus: Cytotoxicity against human AHH-1 cells assessed as residual cell viability at 1 uM measured after 72 hrs by MTT assay relative to control. It counts as toxicity, cell-based. Particulars: read-out: Activity.
The next data set deals with MDA-MB-231. Put plainly: Antiproliferative activity against human MDA-MB-231 cells assessed as inhibition of cell growth measured after 72 hrs by MTT assay. The class given is functional, cell-based. Particulars: MDA-MB-231, 72 h.
Data set [3] has as its system RD. Briefly: Induction of apoptosis in human RD cells assessed as increase in caspase 3/7 level at 2 uM incubated for 24 hrs. It counts as functional, cell-based.
The test system of data set [4] is THP-1. Put plainly: Antiproliferative activity against human THP-1 cells assessed as inhibition of cell growth incubated for 24 hrs by CellTiter-Glo luminescent cell viability assay. It counts as functional, cell-based. Particulars: THP-1, 24 h.
The target in data set [5] is Lysine-specific histone demethylase 1A (Homo sapiens) (UniProt O60341). Briefly: Inhibition of LSD1 in human Rh30 cells assessed as increase in H3K4me2 level at 1 uM incubated for 48 hrs by Western blot analysis. The class given is cell-based.
Data set [6] can be described thus: Cytotoxicity against human derived mesenchymal stem cells assessed as residual cell viability at 1.25 uM measured after 72 hrs relative to control. The class given is toxicity, cell-based. Particulars: read-out: Activity.
Data set [7] has as its system SJRH30. Briefly: Induction of apoptosis in human Rh30 cells assessed as increase in caspase 3/7 level at 2 uM incubated for 24 hrs. The class given is functional, cell-based.
In data set [8] the target is T2, Histone-lysine N-methyltransferase EHMT2 (Homo sapiens, UniProt Q96KQ7).
T2 sequence (Q96KQ7 whole entry): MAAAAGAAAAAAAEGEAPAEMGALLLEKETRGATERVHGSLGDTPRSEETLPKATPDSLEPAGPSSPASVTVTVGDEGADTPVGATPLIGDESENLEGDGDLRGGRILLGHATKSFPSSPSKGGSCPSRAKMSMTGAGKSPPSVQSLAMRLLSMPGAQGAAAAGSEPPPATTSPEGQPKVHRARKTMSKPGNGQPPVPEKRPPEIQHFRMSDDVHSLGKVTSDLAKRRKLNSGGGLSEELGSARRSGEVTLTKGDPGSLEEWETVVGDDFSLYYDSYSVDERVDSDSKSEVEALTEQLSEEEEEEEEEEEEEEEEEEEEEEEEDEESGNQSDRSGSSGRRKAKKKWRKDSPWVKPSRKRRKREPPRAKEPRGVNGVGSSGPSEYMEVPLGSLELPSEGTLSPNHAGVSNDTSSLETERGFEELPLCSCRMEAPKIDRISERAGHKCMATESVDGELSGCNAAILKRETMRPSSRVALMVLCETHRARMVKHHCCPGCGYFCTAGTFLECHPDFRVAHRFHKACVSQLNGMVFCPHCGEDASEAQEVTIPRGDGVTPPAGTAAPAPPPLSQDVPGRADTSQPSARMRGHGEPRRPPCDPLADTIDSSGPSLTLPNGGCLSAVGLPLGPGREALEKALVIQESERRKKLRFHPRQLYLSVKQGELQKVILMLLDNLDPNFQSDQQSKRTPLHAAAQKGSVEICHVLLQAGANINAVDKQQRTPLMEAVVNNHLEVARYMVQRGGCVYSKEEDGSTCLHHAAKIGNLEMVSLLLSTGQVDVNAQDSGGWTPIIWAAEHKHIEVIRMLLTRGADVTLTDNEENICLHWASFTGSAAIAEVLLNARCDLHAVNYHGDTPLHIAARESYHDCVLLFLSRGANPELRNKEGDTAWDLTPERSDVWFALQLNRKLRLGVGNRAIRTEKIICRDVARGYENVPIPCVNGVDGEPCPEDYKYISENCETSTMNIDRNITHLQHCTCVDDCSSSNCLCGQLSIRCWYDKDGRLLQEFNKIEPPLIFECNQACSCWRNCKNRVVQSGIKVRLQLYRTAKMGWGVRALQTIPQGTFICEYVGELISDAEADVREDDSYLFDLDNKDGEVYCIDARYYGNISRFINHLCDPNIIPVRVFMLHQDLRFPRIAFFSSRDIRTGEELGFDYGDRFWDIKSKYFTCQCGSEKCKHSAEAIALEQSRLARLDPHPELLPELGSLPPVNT
Put plainly: Inhibition of G9a (unknown origin) assessed as reduction in substrate methylation using histone H3 and SAM as substrate measured after 15 to 60 mins by microfluidic capillary electrophoresis analysis.

Data set [9] deals with THP-1. Put plainly: Antiproliferative activity against human THP-1 cells assessed as inhibition of cell growth incubated for 144 hrs by CellTiter-Glo luminescent cell viability assay. It counts as functional, cell-based. As to conditions: THP-1, 144 h.
The test system of data set [10] is SJRH30. Briefly: Antiproliferative activity against human Rh30 cells assessed as reduction in live cells at 2 uM incubated for 24 hrs by calceinAM/propidium iodide staining based fluorescence microscopy. It counts as functional, cell-based.
Data set [11] concerns RD. Put plainly: Antiproliferative activity against human RD cells assessed as inhibition of cell growth incubated for 24 hrs. It counts as functional, cell-based.
Data set [12] relates to RD. Briefly: Antiproliferative activity against human RD cells assessed as inhibition of cell growth incubated for 72 hrs. The class given is functional, cell-based.
Data set [13] deals with SJRH30. Put plainly: Antiproliferative activity against human Rh30 cells assessed as inhibition of cell growth incubated for 24 hrs. It counts as functional, cell-based. Particulars: SJRH30, 24 h.
Data set [14] relates to RD. Put plainly: Antiproliferative activity against human RD cells assessed as reduction in live cells at 2 uM incubated for 72 hrs by calceinAM/propidium iodide staining based fluorescence microscopy. The class given is functional, cell-based.
Data set [15] has as its target Lysine-specific histone demethylase 1A (Homo sapiens) (UniProt O60341). Put plainly: Inhibition of LSD1 in human RD cells assessed as increase in H3K4me2 level at 1 uM incubated for 48 hrs by Western blot analysis. It counts as cell-based.
For data set [16], the target named is T1, LSD1/CoREST complex. Put plainly: Inhibition of human LSD1/CoREST using histone H3 peptide as substrate by fluorescence polarization assay. It counts as protein-complex assay.
The target of data set [17] is Lysine-specific histone demethylase 1A (Homo sapiens) (UniProt O60341). Briefly: Inhibition of LSD1 in human MV4-11 cells assessed as increase in H3K4me2 level at 0.2 to […] incubated for 24 hrs by Western blot analysis. It counts as cell-based. As to conditions: dose 0.2-2.5 µM.
Data set [18] has as its system MV4-11. Put plainly: Induction of cell cycle arrest in human MV4-11 cells assessed as accumulation of cells at G1 phase at 0.2 to […] incubated for 24 hrs. The class given is functional, cell-based. As to conditions: dose 0.2-2.5 µM.
Data set [19] relates to MV4-11. Put plainly: Induction of apoptosis in human MV4-11 cells assessed as accumulation of cells at sub-G1 phase incubated for 24 hrs. It counts as functional, cell-based. Particulars: dose 0.2-25 µM, DDE = dose-dependent effect.
Data set [20] in a line: Cytotoxicity against HMEC cells assessed as residual cell viability at 1 uM incubated for 72 hrs by MTT assay relative to control. It counts as toxicity, cell-based. Particulars: human, read-out: Activity.
The subject of data set [21] is THP-1. Briefly: Antiproliferative activity against human THP-1 cells assessed as inhibition of cell growth incubated for 72 hrs by CellTiter-Glo luminescent cell viability assay. It counts as functional, cell-based. As to conditions: THP-1, 72 h.
Data set [22] has as its system SJRH30. Put plainly: Antiproliferative activity against human Rh30 cells assessed as inhibition of cell growth incubated for 72 hrs. Particulars: SJRH30, 72 h. The class given is functional, cell-based.
Data set [23] has as its system SJRH30. Briefly: Antiproliferative activity against human Rh30 cells assessed as inhibition of cell growth incubated for 144 hrs. It counts as functional, cell-based. Particulars: SJRH30, 144 h.
Data set [24] concerns RD. Put plainly: Antiproliferative activity against human RD cells assessed as inhibition of cell growth incubated for 144 hrs. The class given is functional, cell-based.
The test system of data set [25] is MV4-11. Briefly: Antiproliferative activity against human MV4-11 cells assessed as inhibition of cell growth at […] incubated for 72 to 144 hrs by trypan blue staining based analysis. The class given is functional. Particulars: dose 2.5 µM, time 72-144 hrs.
The target of data set [26] is Histone-lysine N-methyltransferase, H3 lysine-79 specific (Homo sapiens) (UniProt Q8TEK3). Put plainly: Inhibition of […] (unknown origin) using [3H]SAM and HeLa oligo nucleosomes as substrates at 100 uM incubated for 1 hr relative to control.
Chain of Histone-lysine N-methyltransferase, H3 lysine-79 specific (Homo sapiens) (Q8TEK3 whole entry, looked up): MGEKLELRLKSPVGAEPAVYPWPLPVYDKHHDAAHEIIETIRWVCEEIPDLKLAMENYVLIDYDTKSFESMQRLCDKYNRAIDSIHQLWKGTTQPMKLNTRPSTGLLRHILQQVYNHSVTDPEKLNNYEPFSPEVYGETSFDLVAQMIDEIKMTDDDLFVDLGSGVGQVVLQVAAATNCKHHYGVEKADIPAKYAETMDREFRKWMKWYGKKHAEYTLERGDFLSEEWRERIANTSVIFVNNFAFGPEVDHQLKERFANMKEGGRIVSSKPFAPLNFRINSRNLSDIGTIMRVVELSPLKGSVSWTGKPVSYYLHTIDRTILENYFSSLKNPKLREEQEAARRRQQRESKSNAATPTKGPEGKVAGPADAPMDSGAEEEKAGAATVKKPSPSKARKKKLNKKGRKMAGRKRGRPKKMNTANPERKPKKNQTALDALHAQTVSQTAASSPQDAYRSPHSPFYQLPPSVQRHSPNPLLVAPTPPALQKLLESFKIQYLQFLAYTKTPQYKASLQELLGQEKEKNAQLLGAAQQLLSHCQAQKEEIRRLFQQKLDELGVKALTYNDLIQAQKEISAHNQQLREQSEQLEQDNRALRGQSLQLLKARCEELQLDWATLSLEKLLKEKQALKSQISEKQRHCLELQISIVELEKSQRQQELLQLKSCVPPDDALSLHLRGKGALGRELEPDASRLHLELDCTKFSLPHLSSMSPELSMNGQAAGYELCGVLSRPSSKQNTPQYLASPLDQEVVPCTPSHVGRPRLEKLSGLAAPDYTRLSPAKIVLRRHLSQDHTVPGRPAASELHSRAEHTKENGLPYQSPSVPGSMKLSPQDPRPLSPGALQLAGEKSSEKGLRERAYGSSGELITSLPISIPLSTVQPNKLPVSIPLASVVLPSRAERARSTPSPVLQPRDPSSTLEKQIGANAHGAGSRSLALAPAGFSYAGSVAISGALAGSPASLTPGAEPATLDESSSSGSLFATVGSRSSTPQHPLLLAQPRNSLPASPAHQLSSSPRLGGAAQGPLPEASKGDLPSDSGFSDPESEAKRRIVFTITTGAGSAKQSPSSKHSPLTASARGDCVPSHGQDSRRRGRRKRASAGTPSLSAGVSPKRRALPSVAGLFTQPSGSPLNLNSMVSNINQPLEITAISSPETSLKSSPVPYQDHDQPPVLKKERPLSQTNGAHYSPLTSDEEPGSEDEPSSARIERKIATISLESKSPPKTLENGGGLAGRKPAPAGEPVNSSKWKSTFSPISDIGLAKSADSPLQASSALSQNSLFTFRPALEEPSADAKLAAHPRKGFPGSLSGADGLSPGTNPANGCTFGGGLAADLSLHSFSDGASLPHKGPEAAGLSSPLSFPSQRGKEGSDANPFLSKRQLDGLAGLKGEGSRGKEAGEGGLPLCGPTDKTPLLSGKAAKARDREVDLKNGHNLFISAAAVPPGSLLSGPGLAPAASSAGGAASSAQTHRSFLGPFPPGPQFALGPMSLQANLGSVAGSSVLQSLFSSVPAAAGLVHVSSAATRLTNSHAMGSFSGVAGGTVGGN
Data set [27] deals with T3, MAO-B (amine oxidase [flavin-containing] B) (Homo sapiens, UniProt P27338).
T3 sequence (P27338 whole entry): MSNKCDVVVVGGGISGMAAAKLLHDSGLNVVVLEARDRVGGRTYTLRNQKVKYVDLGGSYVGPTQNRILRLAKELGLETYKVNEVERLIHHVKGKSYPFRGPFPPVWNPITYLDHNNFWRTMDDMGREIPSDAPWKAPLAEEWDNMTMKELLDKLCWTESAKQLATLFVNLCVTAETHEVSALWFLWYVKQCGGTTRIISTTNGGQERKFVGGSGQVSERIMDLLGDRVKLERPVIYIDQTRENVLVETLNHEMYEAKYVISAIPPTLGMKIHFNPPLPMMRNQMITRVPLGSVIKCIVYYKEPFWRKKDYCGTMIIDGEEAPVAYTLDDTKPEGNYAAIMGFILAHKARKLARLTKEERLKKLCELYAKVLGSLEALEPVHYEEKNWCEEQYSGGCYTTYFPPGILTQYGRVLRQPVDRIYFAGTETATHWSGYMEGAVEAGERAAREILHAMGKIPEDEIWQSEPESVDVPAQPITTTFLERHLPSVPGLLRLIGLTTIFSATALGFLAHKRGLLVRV
Put plainly: Inhibition of human MAO-B using p-tyramine as substrate at 100 uM by fluorimetric analysis relative to control. Particulars: human MAO-B enzyme, probe p-tyramine.

The target in data set [28] is T4, MAO-A (amine oxidase [flavin-containing] A) (Homo sapiens, UniProt P21397).
T4 sequence (P21397 whole entry): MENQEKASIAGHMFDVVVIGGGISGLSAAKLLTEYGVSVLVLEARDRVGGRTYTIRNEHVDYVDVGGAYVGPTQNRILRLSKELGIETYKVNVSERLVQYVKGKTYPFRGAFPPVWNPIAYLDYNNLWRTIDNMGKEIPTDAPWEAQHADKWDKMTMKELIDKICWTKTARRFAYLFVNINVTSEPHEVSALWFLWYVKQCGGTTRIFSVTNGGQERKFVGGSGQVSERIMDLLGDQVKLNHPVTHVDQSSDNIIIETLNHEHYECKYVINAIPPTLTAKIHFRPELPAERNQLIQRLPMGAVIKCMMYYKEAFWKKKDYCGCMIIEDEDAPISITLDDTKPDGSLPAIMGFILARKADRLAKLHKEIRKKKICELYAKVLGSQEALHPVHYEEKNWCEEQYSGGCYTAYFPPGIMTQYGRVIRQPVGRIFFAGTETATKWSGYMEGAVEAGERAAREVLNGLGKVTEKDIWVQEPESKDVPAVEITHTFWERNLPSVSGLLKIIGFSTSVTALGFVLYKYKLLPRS
Put plainly: Inhibition of human MAO-A using p-tyramine as substrate at 100 uM by fluorimetric analysis relative to control. As to conditions: human MAO-A enzyme, probe p-tyramine.

Data set [29] addresses Histone-lysine N-methyltransferase EZH2 (Homo sapiens) (UniProt Q15910). Put plainly: Inhibition of EZH2 (unknown origin) using [3H]SAM and chicken core histone as substrates at 100 uM incubated for 1 hr relative to control.

Calls of active or inactive are those of the source. No cut-off for these calls is given here.

Chain of Histone-lysine N-methyltransferase EZH2 (Homo sapiens) (Q15910 whole entry, looked up): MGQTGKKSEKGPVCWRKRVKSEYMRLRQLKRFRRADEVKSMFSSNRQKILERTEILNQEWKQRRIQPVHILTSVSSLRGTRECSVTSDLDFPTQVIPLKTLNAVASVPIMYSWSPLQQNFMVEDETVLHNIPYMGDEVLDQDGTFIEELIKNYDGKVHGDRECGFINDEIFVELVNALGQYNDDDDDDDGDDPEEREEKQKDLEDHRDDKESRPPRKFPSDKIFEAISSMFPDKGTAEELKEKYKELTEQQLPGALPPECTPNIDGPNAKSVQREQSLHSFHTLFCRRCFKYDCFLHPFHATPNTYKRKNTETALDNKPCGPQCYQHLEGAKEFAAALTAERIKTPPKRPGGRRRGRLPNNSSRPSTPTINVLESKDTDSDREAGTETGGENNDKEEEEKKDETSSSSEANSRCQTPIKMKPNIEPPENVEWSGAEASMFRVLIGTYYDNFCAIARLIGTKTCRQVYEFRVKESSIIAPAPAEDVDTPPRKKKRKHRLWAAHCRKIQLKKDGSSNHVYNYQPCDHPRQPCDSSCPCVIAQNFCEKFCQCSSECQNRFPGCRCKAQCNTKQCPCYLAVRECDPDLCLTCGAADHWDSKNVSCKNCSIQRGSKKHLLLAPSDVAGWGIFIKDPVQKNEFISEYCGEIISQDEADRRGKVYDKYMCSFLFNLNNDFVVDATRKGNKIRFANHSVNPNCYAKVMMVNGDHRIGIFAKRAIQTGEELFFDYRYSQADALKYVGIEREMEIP

For `COc1cc2nc(NCCCN(C)C)nc(NC3CCN(Cc4ccc5ccccc5c4)CC3)c2cc1OC`, at LSD1/CoREST complex [1], the Kd was 75 nM. In addition, the viability at 72 h, 1 µM was 81.5% in data set [2] and 96.5% in data set [20]. Further, the IC50 amounted to 210 nM in the data set with MDA-MB-231; 300 nM in the data set with THP-1 [4]; 92 nM in the data set with THP-1 [9]; 2280 nM in the data set with RD [11]; 1230 nM in the data set on RD [12]; 1210 nM in the data set with SJRH30 [13]. Besides, the IC50 is 160 nM in the data set with THP-1 [21], 910 nM in the data set on SJRH30 [22], 690 nM in the data set on SJRH30 [23] and 900 nM in the data set on RD [24]. Moreover, the result in the data set with RD [3], with SJRH30 [7], in the data set with SJRH30 [10], in the data set on RD [14] and with MV4-11 [18] was Active. The inhibition result (in data set [5]; in data set [15]; in data set [17]; in the data set with MV4-11 [25]) was “Active” throughout. The viability at 72 h, 1.25 µM in [6] worked out at 96%. Moreover, the Ki in data set [8] was 2930 nM; at LSD1/CoREST complex [16], 156 nM. In the data set on MV4-11 [19], the Activity result is “Dde”.

For `COc1cc2nc(NCCCN(C)C)nc(NC3CCN(CCCc4ccccc4)CC3)c2cc1OC`, the IC50 came out at 800 nM in the data set on MDA-MB-231, 490 nM in the data set with THP-1 [4], 220 nM in the data set with THP-1 [9] and 390 nM in the data set with THP-1 [21]. For the same molecule, the inhibition was 30.3% in [26] and 2.9% in data set [29]. The inhibition at 100 µM in data set [27] came out at 0.3%; in [28], 7.4%. The Ki in data set [8] came out at 690 nM.
